Measured values taken from patent publication US20040162422A1, “Chemical compounds” (priority 2001, published 2004).

Columns and labels:
[1] = molecular target: T1, human adenosine A1 receptors (Homo sapiens, UniProt P30542); assay: Reporter gene experiments in yeast (agonist activity, β-galactosidase/FDG readout); format: cell-based; design: key: equipotent concentration ratio relative to NECA = 1; settings: ECR = equipotent concentration ratio relative to NECA = 1; agonist potency, yeast reporter gene assay
T1 construct: expressed in transfected cells
T1 sequence (P30542 1-326): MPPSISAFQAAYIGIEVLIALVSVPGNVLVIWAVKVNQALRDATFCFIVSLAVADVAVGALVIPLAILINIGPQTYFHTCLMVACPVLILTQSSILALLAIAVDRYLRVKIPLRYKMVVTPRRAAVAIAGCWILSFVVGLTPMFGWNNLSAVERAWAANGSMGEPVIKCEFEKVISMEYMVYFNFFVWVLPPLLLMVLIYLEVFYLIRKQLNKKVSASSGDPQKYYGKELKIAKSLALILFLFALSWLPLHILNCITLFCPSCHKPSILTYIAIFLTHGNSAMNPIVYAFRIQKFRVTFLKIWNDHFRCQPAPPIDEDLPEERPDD
Protocol: Reporter Gene Experiments in Yeast
Agonist activity at human adenosine A1 receptors was measured in yeast cell lines expressing the adenosine A1 receptor together with a chimeric G-protein which linked receptor stimulation to the expression of the enzyme β-galactosidase. Cells were plated out in 96-well plates in culture medium to which was added 2 mM 3-AT (3-aminotriazole) to limit basal growth in the absence of agonist stimulation, and FDG (fluorescein di-β-D-galactopyranoside) as substrate for β-galactosidase, which converts FDG to fluorescein. For measurement of potency, agonists were added to the appropriate wells at a concentration range of approximately 10^−10-10^−5M and incubated at 30° C. for 18 hours. At this point the amount of fluorescein generated was measured in a spectrophotometer. From these readings, the concentration-dependence of the stimulation by the agonist can be calculated. One of the agonists tested on each 96-well plate was the standard non-selective agonist, N-ethylcarboxamidoadenosine (NECA), and the potency of all test agonists is expressed relative to that of the NECA standard.
(ECR=equipotent concentration ratio relative to NECA=1)

[2] = molecular target: T2, human adenosine A3 receptors (Homo sapiens, UniProt P0DMS8); assay: Reporter gene experiments in CHO cells (CRE/SPAP, inhibition of forskolin-stimulated SPAP production); format: cell-based; settings: ECR = equipotent concentration ratio relative to NECA = 1; agonist potency, CHO CRE/SPAP reporter gene assay
T2 construct: expressed in transfected cells; host or cells: Chinese hamster ovary (CHO) cells with CRE/SPAP/HYG reporter
T2 sequence (P0DMS8 1-318): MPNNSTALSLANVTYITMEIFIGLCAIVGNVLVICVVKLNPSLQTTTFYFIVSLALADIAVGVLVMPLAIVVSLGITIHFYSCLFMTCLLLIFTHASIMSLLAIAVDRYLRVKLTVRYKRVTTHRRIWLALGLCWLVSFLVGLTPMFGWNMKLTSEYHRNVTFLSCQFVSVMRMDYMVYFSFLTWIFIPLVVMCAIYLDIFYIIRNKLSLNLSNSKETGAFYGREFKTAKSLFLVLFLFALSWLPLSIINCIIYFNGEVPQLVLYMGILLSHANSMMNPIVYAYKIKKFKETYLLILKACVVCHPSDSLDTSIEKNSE
Text: The compounds useful in the invention are agonists at the adenosine A1 receptor. Preferably they are selective agonists at the adenosine A1 receptor. By selective is meant that the affinity for the A1 receptor is at least 2 times, preferably 5 times and more preferably 10 times greater than the other adenosine receptor subtypes, particularly A3. Agonist selectivity of compounds against other human adenosine receptors can be determined using Chinese hamster ovary (CHO) cells transfected with the gene for the relevant human adenosine receptor following a method based on that of Castanon, K V. and Spevak, W. (1994) Biochem. Biophys. Res. Commun. 198, 626-631. The CHO cells are also transfected with cyclic AMP response elements promoting the gene for secreted placental alkaline phosphatase (SPAP) (Wood, K V. (1995) Cuff. Opinion. Biotechnology, 6, 50-58). The effect of test compounds is determined by their effects on basal levels of cAMP (A2a) or on forskolin-enhanced cAMP (A1 and A3) as reflected by changes in levels of SPAP. EC50 values for compounds are determined as a ratio to that of the non-selective agonist N-ethyl carboxamidoadenosine (NECA). “Adenosine receptors: New opportunities for future drugs” (S. A. Poulsen et al, Bioorg. Med. Chem,. 1998, 6, 619-641) summarises disease conditions that may be treated with adenosine A1 agonists.
Reporter Gene Experiments in CHO cells
Agonist activity at human adenosine A3 receptors was measured in Chinese hamster ovary (CHO) cells containing the CRE/SPAP/HYG (CRE=cyclic AMP response element; HYG=hygromycin resistance; SPAP=secreted placental alkaline phosphatase) reporter gene elements, which upon stimulation of cAMP levels produced SPAP. A cell line was used which was stably transfected with the human adenosine A3 receptor in addition to the above elements. Cells were plated out in 96-well plates in culture medium and incubated at 37° C. for 1 hour. For measurement of potency, agonists were added to the appropriate wells at a concentration range of approximately 10^−10-10^−5M. 15 Min later, cAMP levels were stimulated by addition of a maximal concentration of forskolin. All cells were then incubated for a further 5 hours at 37° C., and cooled to room temperature, after which a substrate for the phosphatase (para-nitrophenol phosphate, pNPP), which is converted by SPAP to a coloured reagent) was then added and the 96-well plates were read in a plate reader. From these readings, the concentration-dependence of the inhibition by the agonist for forskolin-stimulated SPAP production can be calculated. As with the yeast assays, one of the agonists tested on each 96-well plate was the standard non-selective agonist, N-ethylcarboxamidoadenosine (NECA), and the potency of all test agonists is expressed relative to that of the NECA standard.

With `C#C[C@H]1O[C@@H](n2cnc3c(Nc4cccc(Cl)c4C)ncnc32)[C@H](O)[C@@H]1O` [Example 38, (2R,3R,4S,5R)-2-{6-[(3-Chloro-2-methylphenyl)amino]-9H-purin-9-yl}-5-ethynyltetrahydrofuran-3,4-diol] the “Adenosine A1 receptor ECR*” value [1] was 5.45 and the “Adenosine A3 receptor ECR*” value [2] was greater than 145.

With `C#C[C@H]1O[C@@H](n2cnc3c(Nc4ccc(F)cc4F)ncnc32)[C@H](O)[C@@H]1O` [Example 32, (2R,3R,4S,5R)-2-{6-[(2,4-Difluorophenyl)amino]-9H-purin-9-yl}-5-ethynyltetrahydrofuran-3,4-diol] the “Adenosine A1 receptor ECR*” value [1] was 7.94 and the “Adenosine A3 receptor ECR*” value [2] was greater than 1070.

In the case of `C#C[C@H]1O[C@@H](n2cnc3c(N[C@@H]4CCC[C@]4(OC)c4ccccc4)ncnc32)[C@H](O)[C@@H]1O` (relative stereo) [Example 9, (2R,3R,4S,6R)-5-Ethynyl-2-(6-{[(1R*,2S*)-2-methoxy-2-phenylcyclopentyl]amino}-9H-purin-9-yl)tetrahydrofuran-3,4-diol], the “Adenosine A1 receptor ECR*” value [1] is reported as 23.81 and the “Adenosine A3 receptor ECR*” value [2] is reported as greater than 165.

`C#C[C@H]1O[C@@H](n2cnc3c(NC4CC4)ncnc32)[C@H](O)[C@@H]1O` [Example 10, (2R,3R,4S,5R)-2-[6-(Cyclopropylamino)-9H-purin-9-yl]-5-ethynyltetrahydrofuran-3,4-diol] was tested, and the “Adenosine A1 receptor ECR*” value [1] was 6.89 and the “Adenosine A3 receptor ECR*” value [2] was greater than 1066.

With `C#C[C@H]1O[C@@H](n2cnc3c(NC4CCCC4)ncnc32)[C@H](O)[C@@H]1O` [Example 12] the “Adenosine A1 receptor ECR*” value [1] was 4.47 and the “Adenosine A3 receptor ECR*” value [2] was greater than 80.2.

`C#C[C@H]1O[C@@H](n2cnc3c(NCCc4ccccc4)ncnc32)[C@H](O)[C@@H]1O` [Example 6, (2R,3R,4S,5R)-5-ethynyl-2-{6-[(2-phenylethyl)amino]-9H-purin-9-yl}tetrahydrofuran-3,4-diol] was tested, and the “Adenosine A1 receptor ECR*” value [1] was 24.6 and the “Adenosine A3 receptor ECR*” value [2] was greater than 1059.

`C#C[C@H]1O[C@@H](n2cnc3c(NCCS(=O)(=O)NCC)ncnc32)[C@H](O)[C@@H]1O` [Example 1, N-Ethyl-2-({9-[(2R,3R,4S,5R)-5-ethynyl-3,4-dihydroxytetrahydrofuran-2-yl]-9H-purin-6-yl}amino)ethanesulfonamide] was tested, and the “Adenosine A1 receptor ECR*” value [1] was 9.95 and the “Adenosine A3 receptor ECR*” value [2] was greater than 1070.

In the case of `C#C[C@H]1O[C@@H](n2cnc3c(NC4Cc5ccccc5C4)ncnc32)[C@H](O)[C@@H]1O` [Example 4, (2R,3R,4S,5R)-2-[6-(2,3-Dihydro-1H-inden-2-ylamino)-9H-purin-9-yl]-5-ethynyltetrahydrofuran-3,4-diol], the “Adenosine A1 receptor ECR*” value [1] is reported as 27.96 and the “Adenosine A3 receptor ECR*” value [2] is reported as greater than 407.

In the case of `C#C[C@H]1O[C@@H](n2cnc3c(N[C@H]4C[C@H]5CCC[C@H]54)ncnc32)[C@H](O)[C@@H]1O` (relative stereo) [Example 17, (2R,3R,4S,5R)-2-{6-[(1R*,5R*,6S*)-Bicyclo[3.2.0]hept-6-ylamino]-9H-purin-9-yl}-5-ethynyltetrahydrofuran-3,4-diol], the “Adenosine A1 receptor ECR*” value [1] is reported as 2.88 and the “Adenosine A3 receptor ECR*” value [2] is reported as greater than 416.

`C#C[C@H]1O[C@@H](n2cnc3c(Nc4ccc(F)cc4Cl)ncnc32)[C@H](O)[C@@H]1O` [Example 35, (2R,3R,4S,5R)-2-{6-[(2-chloro-4-fluorophenyl)amino]-9H-purin-9-yl}-5-ethynyltetrahydrofuran-3,4-diol] was tested, and the “Adenosine A1 receptor ECR*” value [1] was 6.48 and the “Adenosine A3 receptor ECR*” value [2] was greater than 974.

For `C#C[C@H]1O[C@@H](n2cnc3c(N[C@@H]4CCO[C@@H]4C)ncnc32)[C@H](O)[C@@H]1O` [Example 13, (2R,3R,4S,5R)-5-Ethynyl-2-(6-{[(2R,3R)-2-methyltetrahydrofuran-3-yl]amino}-9H-purin-9-yl)tetrahydrofuran-3,4-diol], the “Adenosine A1 receptor ECR*” value [1] was 18.86 and the “Adenosine A3 receptor ECR*” value [2] was greater than 386.

For `C#C[C@H]1O[C@@H](n2cnc3c(Nc4cc(Cl)ccc4C)ncnc32)[C@H](O)[C@@H]1O` [Example 40, (2R,3R,4S,5R)-2-{6-[(5-chloro-2-methylphenyl)amino]-9H-purin-9-yl}-5-ethynyltetrahydrofuran-3,4-diol], the “Adenosine A1 receptor ECR*” value [1] was 16.94 and the “Adenosine A3 receptor ECR*” value [2] was greater than 505.

In the case of `C#C[C@H]1O[C@@H](n2cnc3c(NCC4CC4)ncnc32)[C@H](O)[C@@H]1O` [Example 11, (2R,3R,4S,5R)-2-{6-[(Cyclopropylmethyl)amino]-9H-purin-9-yl}-5-ethynyltetrahydrofuran-3,4-diol], the “Adenosine A1 receptor ECR*” value [1] is reported as 5 and the “Adenosine A3 receptor ECR*” value [2] is reported as greater than 210.

`C#C[C@H]1O[C@@H](n2cnc3c(Nc4ccc(F)c(F)c4)ncnc32)[C@H](O)[C@@H]1O` [Example 43, (2R,3R,4S,5R)-2-{6-[(3,4-Difluorophenyl)amino]-9H-purin-9-yl}-5-ethynyltetrahydrofuran-3,4-diol] was tested, and the “Adenosine A1 receptor ECR*” value [1] was 34.9 and the “Adenosine A3 receptor ECR*” value [2] was greater than 188.

With `C#C[C@H]1O[C@@H](n2cnc3c(N[C@H]4CCC[C@@H]4O)ncnc32)[C@H](O)[C@@H]1O` [Example 3, (2R,3R,4S,5R)-5-Ethynyl-2-(6-{[(1S,2S)-2-hydroxycyclopentyl]amino}-9H-purin-9-yl)tetrahydrofuran-3,4-diol] the “Adenosine A1 receptor ECR*” value [1] was 6.48 and the “Adenosine A3 receptor ECR*” value [2] was greater than 823.

`C#C[C@H]1O[C@@H](n2cnc3c(Nc4ccc(Cl)cc4F)ncnc32)[C@H](O)[C@@H]1O` [Example 33, (2R,3R,4S,5R)-2-{6-[(4-Chloro-2-fluorophenyl)amino]-9H-purin-9-yl}-5-ethynyltetrahydrofuran-3,4-diol] was tested, and the “Adenosine A1 receptor ECR*” value [1] was 26.31 and the “Adenosine A3 receptor ECR*” value [2] was greater than 215.

`C#C[C@H]1O[C@@H](n2cnc3c(N[C@H]4[C@H]5CC[C@H](C5)[C@@H]4C)ncnc32)[C@H](O)[C@@H]1O` [Example 8, (2R,3R,4S,5R)-5-Ethynyl-2-(6-{[(1S,2S,3S,4R)-3-methylbicyclo[2.2.1]hept-2-yl]amino}-9H-purin-9-yl)tetrahydrofuran-3,4-diol] was tested, and the “Adenosine A1 receptor ECR*” value [1] was 7.94 and the “Adenosine A3 receptor ECR*” value [2] was greater than 178.

In the case of “(2R,3R,4S,5R)-5-Ethynyl-2-{6-[(trans-4-hydroxycyclohexyl)amino]-9H-purin-9-yl}tetrahydrofuran-3,4-diol [Example 19]”, the “Adenosine A1 receptor ECR*” value [1] is reported as 8.57 and the “Adenosine A3 receptor ECR*” value [2] is reported as greater than 3208.

With `C#C[C@H]1O[C@@H](n2cnc3c(Nc4cccc(F)c4C)ncnc32)[C@H](O)[C@@H]1O` [Example 37, (2R,3R,4S,5R)-5-ethynyl-2-{6-[(3-fluoro-2-methylphenyl)amino]-9H-purin-9-yl}tetrahydrofuran-3,4-diol] the “Adenosine A1 receptor ECR*” value [1] was 4.79 and the “Adenosine A3 receptor ECR*” value [2] was greater than 145.
